{
  "source": "patent US20050130902A1",
  "about": "“Peptide compounds for counteracting reactive oxygen species and free radicals” (priority 2001, published 2005)",
  "key": {"SOD-1": {"test_system": "SOD-1", "assay": "PEP-2-dependent upregulation of SOD-1 in rat cortical cell cultures (Western immunoblot, densitometry)", "format": "cell-based", "settings": "5 hours, rat brain cortical cells, vs vehicle control", "description": "Primary cortical cultures were obtained by growing newborn rat brain cortical cells in Delbecco's modified Eagle medium supplemented with 100 units/ml of penicillin G, 100 μg/ml of streptomycin, and 10% fetal calf serum. The cells were isolated from the E-21 cortex of rat brain, plated at a density of 1×10^5 per ml and grown to confluence within four to five days in an atmosphere containing air and 5% CO2 at 37° C. as described in Cornell-Bell et al., Science, 247: 470473 (1990) and Cell Calcium, 12: 185-204 (1991). Cultures were grown in 20 ml flasks as a monolayer and then exposed to various concentrations of peptide for studies of the effects of PEP-2 on upregulation of the gene for SOD. Cultures of the rat brain cortical cells were incubated with 1 ng/ml, 10 ng/ml, and 100 ng/ml of peptide compound PEP-2 for durations of 5 hours. Control cultures were treated in the same manner, but were not incubated with PEP-2.\nCytoplasmic proteins were isolated according to published methods (Adams et al., J. Leukoc. Biol. 62: 865-873 (1997)). The cell cultures were washed once in phosphate buffer saline (PBS) containing 20 mM EDTA and then suspended in 250 μl of freshly prepared lysis buffer (20 mM Hepes, pH 7.9, 10 mM KCl, 300 mM NaCl, 1 mM MgCl2, 0.1% Triton X-100 nonionic detergent, 20% glycerol, 0.5 mM dithiothreitol (DTT), freshly supplemented with inhibitors as described in Adams et al., J. Biol. Chem., 77: 221-233 (2000)). The suspensions were then incubated for at least 10 minutes on ice to lyse cells and then centrifuged (14,000×g for 5 minutes at 4° C.) to pellet cell debris. The supernatant cytoplasmic fractions were removed and stored as aliquots at −80° C. for analysis. […]\nThe cytoplasmic proteins were separated by SDS-PAGE using 5 μg/lane on the gels for analysis by Western immunoblots. […] SOD expression was detected in the Western blots using anti-SOD rabbit polyclonal antibody (Rockland, Inc., Gilbertville, Pa.). The Western blots were also analyzed by laser densitometry to quantify SOD protein upregulation. […]"}, "SOD [1]": {"test_system": "SOD", "assay": "In vivo SOD upregulation in rat brain and heart after iv injection (Western immunoblot)", "design": "species or system Sprague-Dawley rats", "settings": "1.2 mg/kg iv, 6 hours post injection", "description": "(§1) In vivo experiments were carried out in Sprague-Dawley rats (300-325 g) with solutions of peptide compounds PEP-1 and PEP-3. The animals were injected intravenously (iv) via the tail vein with a peptide compound. Each animal received one injection of peptide compound in normal saline at total dose equivalent of 1.2 or 2.4 mg peptide compound/kg body weight. The animals were sacrificed by decapitation at 6 hours post injection and dissected to isolate brain and heart organs, which were frozen at −70° C. for subsequent analysis by Western immunoblots.\n(§2) Each tissue was thawed and homogenized in a Down's homogenizer using ten volumes of homogenizer buffer (see, Adams et al., […], 77: 221-233 (2000); buffer as described in Adams et al., J. Leukoc. Biol., 62: 865-875 […]) to obtain a crude cytoplasmic fraction. The tissue homogenates were centrifuged (14,000×g for 5 minutes at 4° C.) to yield the supernatant purified cytoplasmic protein fractions for Western immunoblot analysis as described in Adams et al. (J. Cell. Biochem., 77: 221-233 (2000)). A 10 μg sample of each protein fraction was then separated by SDS polyacrylamide gel electrophoresis (SDS-PAGE) and analyzed for SOD and CAT content by Western blot assay as above.\n(§3) Controls for measurement of unstimulated levels of SOD were obtained from two vehicle-only (i.e., no peptide compound), injected rats that were sacrificed at 6 hours post injection. Both had essentially the same unstimulated level of SOD. Standard quantities of each cytoplasmic fraction (10 μg) were loaded on a lane of a gel for electrophoretic separation and Western immunoblot analysis (Adams et al., J. Cell. Biochem., 77: 221-233 (2000)). The stained gels were photographed and scanned by laser densitometry to quantify intensities in comparison to enzyme levels for control vehicle treated rats."}, "CAT": {"test_system": "CAT", "assay": "In vivo CAT upregulation in rat brain and heart after iv injection (Western immunoblot)", "design": "species or system Sprague-Dawley rats", "settings": "1.2 mg/kg iv, 6 hours post injection", "description": "as §1, §2, §3"}, "SOD [2]": {"test_system": "SOD", "assay": "SOD level in brain of old C57 Black mice, 14 days oral gavage on various schedules", "format": "in vivo", "settings": "18-month old mice", "description": "Adult 18-month old C57 Black mice (“old mice”) were treated with 0.25 mg/kg of PEP-1 by oral gavage for a period of 14 days. The animals belonged to the following 5 treatment groups (n=3 per group): • Group 1: Control, untreated • Group 2: Treatment once per week • Group 3: Treatment twice per week • Group 4: Treatment every other day • Group 5: Daily treatment\nAt the end of 14 days, all animals were sacrificed and their brains were harvested and the SOD level was analyzed by Western immunoblot as described above. A SOD standard (“M”) was also run alongside the samples. The SOD levels were quantitated by densitometry measurements of the blot."}, "SOD [3]": {"test_system": "SOD", "assay": "SOD level in brain of old C57 Black mice, 30 days daily oral gavage", "format": "in vivo", "settings": "18-month old mice", "description": "As a further examination of the dose-response effect on upregulating SOD in “old” adult C57 Black mice, young and old animals were divided into the following treatment groups (n=3): • Animals 1-3: Young, 4-month old mice, untreated • Animals 4-6: Old, 18-month old mice, untreated • Animals 7-9: Old, 18-month old mice treated daily by oral gavage 0.33 mg/kg of PEP-1 • Animals 10-1 2: Old, 18-month old mice treated daily by oral gavage 3.3 mg/kg of PEP-1\nAt the end of 30 days, all animals were sacrificed and their brains were harvested. SOD level was analyzed by Western immunoblot. A SOD standard (“M”) was also run alongside the samples. The SOD levels were quantitated by densitometry measurements of the immunoblot."}, "[4]": {"assay": "Survival (longevity) of old C57 Black mice over 70-day treatment", "format": "in vivo", "settings": "old 16-month mice", "source_text": "This study was designed to examine the in vivo effect of daily administration of a representative peptide compound, PEP-1, to reverse age-related declines in spontaneous behavioral arousal as measured by effect on locomotor activity and longevity of “old” adult individuals. In this study, C57 Black mice were divided into the following treatment groups (n=10 per group): • Group 1: Young, 4-month old mice, untreated • Group 2: Old, 16-month old mice, untreated • Group 3: Old, 16-month old mice treated daily by oral gavage with 0.025 mg/kg of PEP-1\nGroup 4: Old, 16-month old mice treated daily by oral gavage with 0.075 mg/kg of PEP-1 • Group 5: Old, 16-month old mice treated daily by oral gavage with 0.25 mg/kg of PEP-1 • Group 6: Old, 16-month old mice treated daily by oral gavage with 0.75 mg/kg of PEP-1 • Group 7: Old, 16-month old mice treated daily by oral gavage with 2.5 mg/kg of PEP-1\nAt the end of a 70-day treatment period, all of the young, untreated mice (Group 1) were alive (i.e., to an age of 6.5 months), but 3 of the 10 untreated old mice (Group 2) had died. Also, 2 animals in each of Groups 3 and 4 died during this same period."}, "[5]": {"assay": "Locomotor activity test (spontaneous behavioral arousal) in old C57 Black mice", "format": "in vivo", "description": "Six weeks after assignment of the doses, surviving animals were examined in a standard locomotor activity test used to detect evidence of a reversal of age-related declines in spontaneous behavioral arousal (Forster et al., 1996; Dubey et al., Arch. Biochem. Biophys., 333: 189-197 (1996)). Arousal levels were measured using a Digiscan apparatus (Omnitech, model RXYZCM, Omnitech Electronics, Columbus, Ohio, USA). Each mouse was placed in a clear acrylic chamber (40.5 cm×40.5 cm×30.5 cm) for a […] session. The acrylic chamber was placed in a metal frame lined with arrays of photocells. A wooden cabinet with sheets of insulation enclosed the acrylic chamber and the metal frame. Fans provided an 80-db ambient noise level within the chamber. Movements of the mouse within the horizontal plane interrupted the photobeams, which were automatically recorded by a computer within 1-minute time samples. The measure used in this study was the average horizontal photobeam interruptions per minute, over a 16-minute testing session (horizontal counts/min).\nThe locomotor activity test was performed on blinded Groups 1, 2, 3, 4, 5, and 6, (young untreated control, old untreated control, old treated with PEP-1 at 0.025 mg/kg 0.075 mg/kg, 0.25 mg/kg, and 0.75 mg/kg, respectively) six weeks after assignment of the doses. A significant difference between the young and old untreated control groups was found (p<0.05), verifying previous findings of the age-associated decrease in spontaneous behavioral arousal."}},
  "note": "Values joined by “and” are separate entries in the source; they are usually repeats but may differ in a detail not shown here. Equal entries are not always repeated. No end group written: not given here.",
  "data": [
    {"substance": "[Ac] Asp Gly Glu Ala Leu (Ac-DGEAL) [PEP-2]", "values": [
      {"measurement": "Fold-Increase in SOD Expression", "setting": "SOD-1; 1 ng/ml", "value": "2 fold and 1.8 fold"},
      {"measurement": "Fold-Increase in SOD Expression", "setting": "SOD-1; 10 ng/ml", "value": 1.9, "unit": "fold"},
      {"measurement": "Fold-Increase in SOD Expression", "setting": "SOD-1; 100 ng/ml", "value": 2.1, "unit": "fold"}
    ]},
    {"substance": "[Ac] Asp Gly Leu Glu Ala (Ac-DGLEA) [PEP-3]", "values": [
      {"measurement": "SOD (Fold increase)", "setting": "SOD [1]; rat brain", "value": 1.0, "unit": "fold"},
      {"measurement": "SOD (Fold increase)", "setting": "SOD [1]; rat heart", "value": 1.2, "unit": "fold"},
      {"measurement": "CAT (Fold increase)", "setting": "CAT; rat brain", "value": 1.0, "unit": "fold"},
      {"measurement": "CAT (Fold increase)", "setting": "CAT; rat heart", "value": 1.0, "unit": "fold"}
    ]},
    {"substance": "[Ac] Asp Gly Glu Ala (Ac-DGEA) [PEP-1]", "values": [
      {"measurement": "SOD (Fold increase)", "setting": "SOD [1]; rat brain", "value": 1.0, "unit": "fold"},
      {"measurement": "SOD (Fold increase)", "setting": "SOD [1]; rat heart", "value": 1.0, "unit": "fold"},
      {"measurement": "CAT (Fold increase)", "setting": "CAT; rat brain", "value": 1.0, "unit": "fold"},
      {"measurement": "CAT (Fold increase)", "setting": "CAT; rat heart", "value": 1.1, "unit": "fold"},
      {"measurement": "SOD level elevation compared to control group", "setting": "SOD [2]; 0.25 mg/kg oral gavage daily", "value": "over 4.5 fold"},
      {"measurement": "SOD level elevation compared to control group", "setting": "SOD [2]; 0.25 mg/kg oral gavage every other day", "value": "over 4.5 fold"},
      {"measurement": "increase in SOD level compared to control group", "setting": "SOD [2]; 0.25 mg/kg oral gavage twice per week", "value": 2.3, "unit": "fold"},
      {"measurement": "increase in SOD level compared to untreated old control", "setting": "SOD [3]; 0.33 mg/kg oral daily", "value": 2.9, "unit": "fold"},
      {"measurement": "level of SOD expression in brain tissue compared to untreated old control", "setting": "SOD [3]; 3.3 mg/kg oral daily", "value": 4.8, "unit": "fold"},
      {"measurement": "SOD-related breakdown fragments", "setting": "SOD [3]; brain, 0.33 or 3.3 mg/kg oral daily", "value": "no change"},
      {"measurement": "animals that died during 70-day treatment period", "setting": "[4]; 0.025 mg/kg daily oral gavage, n=10 (Group 3)", "value": 2, "unit": "animals"},
      {"measurement": "animals that died during 70-day treatment period", "setting": "[4]; 0.075 mg/kg daily oral gavage, n=10 (Group 4)", "value": 2, "unit": "animals"},
      {"measurement": "survival over 70-day treatment period", "setting": "[4]; 0.25 mg/kg daily oral gavage, n=10 (Group 5)", "value": "all of the old mice treated with PEP-1 survived"},
      {"measurement": "survival over 70-day treatment period", "setting": "[4]; 0.75 mg/kg daily oral gavage, n=10 (Group 6)", "value": "all of the old mice treated with PEP-1 survived"},
      {"measurement": "survival over 70-day treatment period", "setting": "[4]; 2.5 mg/kg daily oral gavage, n=10 (Group 7)", "value": "all of the old mice treated with PEP-1 survived"},
      {"measurement": "horizontal locomotor activity (horizontal counts/min)", "setting": "[5]; 0.025 mg/kg daily oral, six weeks (Group 3)", "value": "failed to differ significantly from the old controls"},
      {"measurement": "horizontal locomotor activity (horizontal counts/min)", "setting": "[5]; 0.075 mg/kg daily oral, six weeks (Group 4)", "value": "higher than that of the old controls"},
      {"measurement": "horizontal locomotor activity (horizontal counts/min)", "setting": "[5]; 0.25 mg/kg daily oral, six weeks (Group 5)", "value": "higher than that of the old controls"},
      {"measurement": "horizontal locomotor activity (horizontal counts/min)", "setting": "[5]; 0.75 mg/kg daily oral, six weeks (Group 6)", "value": "higher than that of the old controls"}
    ]}
  ]
}
